Results from PubChem BioAssay AID1996.
≈ marks a conversion by molar mass, not a printed value.

conditions: buffer; pH 7.4; 200.0 µM

SMILES | solubility kinetic [µg/mL]
COc1cc(N)c(Cl)cc1C(=O)OCC(=O)c1cccs1 | 4.2 (≈ 12.9 µM)
Cc1ccnc(NS(=O)(=O)c2ccc(NS(C)(=O)=O)cc2)n1 | 47.8 (≈ 140 µM)
O=C(NC1CC2CCCC(C1)N2Cc1ccc(F)cc1)c1ccc(F)cc1 (stereo not drawn) | > 55.6
CCOC(=O)C1=C(Nc2ccc(OC)cc2)OCC1=O | 39.5 (≈ 142 µM)
O=C(NC1CCN(Cc2ccccc2Cl)CC1)c1ccccc1 | 47.6 (≈ 145 µM)
Nc1no[n+]([O-])c1-c1ccccc1 | 24.2 (≈ 137 µM)
CC(C)C(NC(=O)C1CCCCC1)C(=O)NCCc1ccccc1 (stereo not drawn) | 1.3 (≈ 3.93 µM)
CCN(CC(=O)Nc1ccc2c(c1)OCCO2)CC(=O)Nc1ccccc1C(F)(F)F.O=C(O)C(=O)O | 47.7
CCCC(=O)NC(=S)c1c(C)n(C)n(-c2ccccc2)c1=O | > 47.6
Cc1cc(C)cc(NC(=O)C(=S)NCc2ccccc2)c1 | < 0.3
Nc1ccc(S(=O)(=O)NC2=NCCCCC2)cc1N | > 42.4
O=C1Cc2ccccc2C(c2ccc(Cl)cc2)N1 (stereo not drawn) | 30.4 (≈ 118 µM)
O=C(NCc1ccccn1)Nc1ccc(F)c(Cl)c1 | > 42
Cc1ccc(OCCNC(=O)Cc2ccc(F)cc2)cc1 | 29.2 (≈ 102 µM)
CCc1c(C)nc(SCC(=O)NC2CCCC2)[nH]c1=O | > 44.3
Cc1ccc(NC(=O)C2CC(=O)N(Cc3ccco3)C2)cc1 (stereo not drawn) | 39.7 (≈ 133 µM)
COC(=O)c1cc(OC)c(OC)cc1NC(=S)N1CCCC1 | 6.3 (≈ 19.4 µM)
CC(C)(C)NC(=O)N1CCn2cccc2C1c1ccccc1F (stereo not drawn) | 40 (≈ 127 µM)
COc1ccc(S(=O)(=O)N2CN3CCN(C3)C2)cc1OC | > 47
CCN(CC)c1ccc(/C=C(\C#N)C(N)=O)cc1 | > 36.5
O=C(NCCc1cccc(Cl)c1)c1ccc2c(c1)OCO2 | 5.8 (≈ 19.1 µM)
O=C(COC(=O)CCc1ccc(S(=O)(=O)N2CCOCC2)cc1)Nc1ccccc1[N+](=O)[O-] | 16.8 (≈ 35.2 µM)
Cc1ccc(S(=O)(=O)N2CCCCC2)cc1NC(=O)CN1C(=O)c2ccccc2S1(=O)=O | 20.7 (≈ 43.3 µM)
O=C(CSc1nc2ccccc2o1)NC1CCS(=O)(=O)C1 (stereo not drawn) | > 49

SMILES | solubility kinetic [µg/mL]
O=C(COC(=O)/C=C/c1cccs1)NC1CC1 | > 37.7
O=C(Nc1nc2ccccc2s1)Nc1ccc(F)cc1F | < 0.2
Cl.O=S(=O)(c1ccc(F)cc1)N1CCCNCC1 | > 44.2
Cc1cccc(C(=O)N/C(=C\c2ccc(C)o2)C(=O)O)c1 | > 42.8
Cc1ccc(N2C(=O)[C@@H]3C(c4cccnc4)=NO[C@@H]3C2=O)cc1 | > 46.1
COc1cc2c(cc1OC)CC1(CCCCC1)N=C2.Cl | > 44.4
O=C(COc1ccc(Cl)cc1Cl)NC(=O)c1ccccc1 | < 0.7
Cc1ccc(-c2c(C#N)c(N)nc3c2CCCC3)o1 | 4.1 (≈ 16.2 µM)
Cc1nonc1NC(=O)c1oc2ccc(F)cc2c1C | 0.7 (≈ 2.54 µM)
Cc1c(C)[n+](=O)c(-c2ccc(Br)cc2)c(C)n1[O-] | > 46.4
CC1CCCCC1NC(=O)c1ccncc1 (stereo not drawn) | > 32.7
Cc1ccc(OCC(=O)Nc2ccncc2)c(C)c1 | 32.1 (≈ 125 µM)
CCOC(=O)C1CCCN(Cc2cccc(Oc3ccccc3)c2)C1 (stereo not drawn) | 3.1 (≈ 9.13 µM)
O=C(Cn1ccccc1=O)c1ccc(Cl)cc1 | 31.4 (≈ 127 µM)
NC(=O)C1CCN(C(=O)COc2ccc3c(c2)oc(=O)c2ccccc23)CC1 | 10.8 (≈ 28.4 µM)
Cc1noc(C(=O)NCC2CCCO2)c1Cl (stereo not drawn) | > 36.7
Nc1nc(C(c2ccccc2)c2ccccc2)cs1 | 11 (≈ 41.3 µM)
CCCn1c(SCC(=O)N(C)C2CCS(=O)(=O)C2)nc2sc3c(c2c1=O)CCC3 (stereo not drawn) | > 68.3
CC(=O)Nc1ccc(NS(=O)(=O)c2cccc3nonc23)cc1 | > 49.8
Brc1cnc2ccccc2c1N1CCCCC1 | 1.2 (≈ 4.12 µM)
O=C(NCCc1cccc(Cl)c1)c1cccs1 | > 39.9
Cc1nc(NC(=O)C2CC2)sc1C(=O)Nc1ccccc1 | 3.8 (≈ 12.6 µM)
Cc1cccc(-n2c(O)c(C=Nc3cccc(O)c3)c3ccccc3c2=O)n1 | 0.8 (≈ 2.15 µM)
CCNC(=O)COC(=O)CCNC(=O)c1cccc(C)c1 | 35.1 (≈ 120 µM)

SMILES | solubility kinetic [µg/mL]
O=C(Nc1ccccc1)c1cc([N+](=O)[O-])ccc1Cl | 3.1 (≈ 11.2 µM)
O=C(NCC1CCCO1)c1ccc2[nH]c3c(c2c1)CCCC3 (stereo not drawn) | > 44.8
CC[C@H](C)[C@H](NC(N)=O)C(=O)Nc1ccccc1F | > 40.1
O=C1c2ccccc2C(O)(c2ccccc2)N1CCc1ccccc1 (stereo not drawn) | 1.3 (≈ 3.95 µM)
CCCNS(=O)(=O)c1cc2c3c(c1)C(C)C(=O)N3CCC2 (stereo not drawn) | 40.3 (≈ 131 µM)
COc1ccccc1-n1c(CCC(=O)O)ccc1-c1ccccc1 | > 48.2
Oc1c(CN2CCOCC2)ccc2ccccc12 | 16.9 (≈ 69.5 µM)
O=C(CN1C(=O)NC(c2ccc(F)cc2)C1=O)NC1CCCCC1 (stereo not drawn) | > 50
CC1CCN(C(=O)c2ccc(NC(=O)c3ccccc3)cc2)CC1 | > 48.4
CC(=O)c1ccc(Nc2c(C)n(C)n(-c3ccccc3)c2=O)cc1 | > 48.2
Cc1ccc(SCCOCCN2CCOCC2)cc1.Cl | > 47.7
O=C(N/C(=C/c1cccc([N+](=O)[O-])c1)C(=O)N1CCCC1)c1ccccc1 | 51.9 (≈ 142 µM)
Nc1nc2sc3c(c2cc1C(=O)NCC(=O)O)CCCC3 | > 45.8
Cc1nc(C)c(-c2csc(Nc3ccccn3)n2)s1 | 10.2 (≈ 35.4 µM)
COc1ccc(OC)c(CNC(=O)C2CCC(=O)N2C(C)C)c1 (stereo not drawn) | > 48.1
O=[N+]([O-])c1ccc(CCn2ccnc2)cc1 | > 32.6
CCN1CCCC1CNC(=O)CCc1nnc(CCC2CCCCC2)o1 (stereo not drawn) | > 54.4
COc1cccc2[nH]c(C(=O)NCc3ccccc3)cc12.Cl | 10.9
CCCn1c(SCCC(=O)O)nc2ccccc21 | > 39.7
CCOCCCNC(=O)C1CCCN1C(=O)Nc1ccccc1[N+](=O)[O-] (stereo not drawn) | > 54.7
CCNS(=O)(=O)c1ccc(NC(=O)Nc2cc(C)ccc2OC)cc1 | 0.9 (≈ 2.48 µM)
CCOC(=O)c1sc(NC(=O)CSC(=S)N2CCN(C)CC2)nc1C | > 60.4
COc1cc2c(cc1OC)C(c1ccccc1OC(C)C)CC(=O)N2 (stereo not drawn) | < 0.7
CC(=O)c1ccc(N2CCc3ccccc3C2)c([N+](=O)[O-])c1 | 8.3 (≈ 28 µM)

SMILES | solubility kinetic [µg/mL]
NC(=O)c1ccc(NC(=O)CCN2C(=O)c3ccccc3C2=O)cc1 | 10.6 (≈ 31.4 µM)
O=C(c1cccc(Oc2ccccc2)c1)N1CCOCC1 | > 42.5
O=C(Nc1ccccc1Cl)c1ccc([N+](=O)[O-])o1 | 39.4 (≈ 148 µM)
CCCCN=CC1=C(O)CC(c2ccccc2)CC1=O (stereo not drawn) | 34.9 (≈ 129 µM)
N#C/C(=C\c1cccs1)C(=O)Nc1ccccn1 | 12.8 (≈ 50.1 µM)
CS(=O)(=O)c1ccc(Cl)c(NC(=O)Nc2ccccc2)c1 | 5.1 (≈ 15.7 µM)
O=C(CNC(=O)c1ccc(Br)o1)Nc1ccccc1 | 6.7 (≈ 20.7 µM)
CC(=O)c1ccc(NC(=O)CCOc2cc(C)ccc2C)cc1 | 5 (≈ 16.1 µM)
Cc1ccc(SCC(=O)OCC(=O)NC2(C#N)CCCCC2)cc1 | 47.6 (≈ 137 µM)
O=S(=O)(c1ccc(Cl)nc1)N1CCc2ccccc21 | 24.9 (≈ 84.5 µM)
O=C1NC2(CCCCCC2)C(=O)N1Cc1cccc([N+](=O)[O-])c1 | 32.1 (≈ 101 µM)
NC(=O)c1cc([N+](=O)[O-])ccc1N1CCN(Cc2ccccc2)CC1 | 23 (≈ 67.6 µM)
CCOC(=O)C(=CNc1ccc(Oc2cncc(Cl)c2)nc1)C(=O)OCC | 5 (≈ 12.8 µM)
S=C1NCN(C2CCCCC2)CN1CCc1ccccc1 | 16.1 (≈ 53.1 µM)
O=C(Nc1ccccc1)C1CCCN1C(=O)NCc1ccccc1 (stereo not drawn) | 22 (≈ 68 µM)
Cl.O=C(c1cc2ccccc2o1)N1CCN(Cc2ccccc2)CC1 | 41.5
FC(F)(F)c1cccc(Cc2noc(CN3C[C@@H]4CCC[C@H]3C4)n2)c1 | 28.4 (≈ 80.8 µM)
Cc1cc(/C=C(\C#N)C(=O)NCc2ccco2)c(C)n1-c1cccnc1 | 10.7 (≈ 30.9 µM)
Cc1ccc(S(=O)(=O)N2CCc3ccccc3C2)cc1C | < 0.6
O=c1oc2ccccc2c(Nc2ccc(Cl)cc2)c1[N+](=O)[O-] | 0.9 (≈ 2.84 µM)
CCC(OC(=O)c1ccco1)C(=O)NCc1ccc2c(c1)OCO2 (stereo not drawn) | 46.5 (≈ 140 µM)
O=C(OCC(=O)N1CCCC1=O)c1cc(Cl)ccc1O | > 44.7
CSCc1ccc(C(=O)NC(C)c2ccc(-n3ccnc3)cc2)cc1 (stereo not drawn) | 42.1 (≈ 120 µM)
S=c1[nH]ccn1Cc1ccccc1 | > 28.5

SMILES | solubility kinetic [µg/mL]
CCc1cccc(C)c1NS(=O)(=O)c1cccs1 | 14.6 (≈ 51.9 µM)
O=C(Nc1ccccc1)N1CCc2c([nH]c3ccccc23)C1C(F)(F)F (stereo not drawn) | 1.8 (≈ 5.01 µM)
COc1ccc(C(=O)NC2=NCCS2)c(OC)c1 | > 39.9
Cc1ccc(S(=O)(=O)NCCC2=CCCCC2)cc1 | 23 (≈ 82.3 µM)
CCC(C)(C)NC(=O)C1CCCN1C(=O)NC1CCCCC1 (stereo not drawn) | > 46.4
CN(C)C(CNC(=O)c1cc(-c2ccco2)nc2ccccc12)c1ccccc1 (stereo not drawn) | 33.9 (≈ 87.9 µM)
CCN(Cc1ccccc1)C(=O)c1c(-c2ccccc2Cl)noc1C | 38.7 (≈ 109 µM)
CC(C)CC(=O)Nc1ccc(C(=O)COC(=O)C2CCC2)cc1 | 5.3 (≈ 16.7 µM)
CC(C)c1ccc(NC(=O)Cn2c(=O)oc3ccccc32)cc1 | 2.1 (≈ 6.77 µM)
O=C(NCc1ccccn1)c1n[nH]c(=O)c2ccccc12 | > 42
Cc1cc(C)c(NC(=O)C2=COCCO2)c(C)c1 | > 37.1
CC1CCC(N2CCN(c3ccc([N+](=O)[O-])cc3)CC2)CC1 (stereo not drawn) | 19.1 (≈ 63 µM)
CC1CCCCC1NC(=O)CNC(=O)c1ccco1 (stereo not drawn) | 37.2 (≈ 141 µM)
Cc1ccc2c(CN3CCCCC3C)cc(=O)oc2c1C.Cl (stereo not drawn) | 20.9
CCOc1ccc2nc(N(CCN(C)C)C(=O)c3cc4ccccc4cc3OC)sc2c1.Cl | 4.2
O=S(=O)(Nc1ccc(F)cc1)c1cccc2nsnc12 | > 46.4
CCN(Cc1ccccc1)C(=O)COC(=O)c1cc(S(=O)(=O)Nc2ccccc2OC)ccc1O | 6 (≈ 12 µM)
N#Cc1ccc(-c2cccnc2)nc1SCC(=O)c1ccccc1 | 2.8 (≈ 8.45 µM)
O=C(Cc1ccc(F)cc1)Nc1nc(-c2ccc(F)c(F)c2)cs1 | 1.4 (≈ 4.02 µM)
COc1ccccc1CNC(=O)CS(=O)(=O)c1ccc(C)cc1 | > 50
O=C(Cn1cc([N+](=O)[O-])cn1)NC1CCCCCC1 | > 39.9
Cc1ccc(-c2cc(=O)[nH]c(NCc3ccccc3)n2)cc1 | 0.3 (≈ 1.03 µM)
